According to PubChem BioAssay (NCI):
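All cell lines were grown in 96-well plates and treated with compound for 48 hours. Here, GI50 denotes the concentration required for 50% inhibition of growth. TGI: total growth inhibition.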

How the values were obtained:
Assay in all cases: NCI-60 cell line screen, 48 h
LXFL 529 NSCLC = test system: LXFL 529 NSCLC
DLD-1 colon = test system: DLD-1 colon
RXF-631 renal = test system: RXF-631 renal
SNB-78 CNS = test system: SNB-78 CNS
DMS 114 small cell lung = test system: DMS 114 small cell lung
XF 498 CNS = test system: XF 498 CNS
MDA-N = test system: MDA-N
DMS 273 small cell lung = test system: DMS 273 small cell lung
HOP-18 NSCLC = test system: HOP-18 NSCLC

SMILES | TGI (LXFL 529 NSCLC) [µM] | TGI (DLD-1 colon) [µM] | TGI (RXF-631 renal) [µM] | TGI (SNB-78 CNS) [µM] | TGI (DMS 114 small cell lung) [µM] | TGI (XF 498 CNS) [µM] | TGI (MDA-N) [µM] | TGI (DMS 273 small cell lung) [µM] | TGI (HOP-18 NSCLC) [µM] | GI50 (LXFL 529 NSCLC) [µM] | GI50 (DLD-1 colon) [µM] | GI50 (RXF-631 renal) [µM] | GI50 (SNB-78 CNS) [µM] | GI50 (HOP-18 NSCLC) [µM] | GI50 (DMS 114 small cell lung) [µM]
O=C1CCC2(c3ccccc3)Nc3ccccc3N12 (stereo unspecified) | > 100 | > 100 | > 100 | > 100 | > 100 | > 100 | – | – | – | – | – | – | – | – | –
CC(/C=C/C(O)=C1/C(=O)CNC1=O)=C\[C@@H](C)[C@H]1O[C@@]2(C)O[C@H](C(=O)[C@@H]3O[C@@]32C)[C@@H]1C | – | – | – | – | – | – | > 100 | – | – | – | – | – | – | – | –
CCCc1nc(Cl)nc(Cl)c1Cl | – | – | – | – | – | – | 0.398 | – | – | – | – | – | – | – | –
C=C1C(=O)C23[C@H](O)C1CC[C@H]2[C@]12COC3(O)[C@@H](O)[C@@H]1C(C)(C)CC[C@@H]2O | 2.56 | 25.1 | 22.7 | 16.4 | 21.3 | 9.82 | – | 27.3 | 24.6 | – | – | – | – | – | –
COc1ccccc1-c1cc(=O)c2cc(C)c(C)c(C(=O)O)c2o1 | > 100 | > 100 | – | > 100 | > 100 | > 100 | – | > 100 | – | – | – | – | – | – | –
OC1=CN=COc2ccccc21 | > 100 | > 100 | > 100 | > 100 | > 100 | – | – | > 100 | – | – | – | – | – | – | –
CC1(C)COC2C(N(Cc3ccccc3)Cc3ccccc3)C(=O)N21 (stereo unspecified) | > 100 | > 100 | – | > 100 | – | – | – | – | > 100 | – | – | – | – | – | –
CN(C)c1ccc(/C=C(\NC(=O)c2ccccc2)c2nc3ccc4c(c3[nH]2)C(=O)c2ccccc2C4=O)cc1 | > 100 | 55.7 | > 100 | > 100 | > 100 | – | – | > 100 | – | – | – | – | – | – | –
C#CCN(N=O)C(=O)ON1C(=O)CCC1=O | > 100 | > 100 | – | > 100 | > 100 | – | – | > 100 | > 100 | – | – | – | – | – | –
COc1cc2c(c3c1c(=O)c1ccccc1n3C)C=CC(C)(C)O2 | > 100 | > 100 | – | > 100 | > 100 | – | – | > 100 | > 100 | – | – | – | – | – | –
COC/N=C(\NC#N)NCOC | > 100 | > 100 | > 100 | – | > 72.5 | > 100 | – | > 81.5 | > 100 | – | – | – | – | – | –
CC(=O)c1cccc(NC(=O)C(=O)c2c(O)c3ccccc3oc2=O)c1 | – | – | – | – | – | – | > 100 | – | – | – | – | – | – | – | –
CCOc1ccc(N=C(NC(=O)c2ccccc2)SC)cc1 | > 100 | > 100 | – | > 100 | > 100 | – | – | > 100 | > 100 | – | – | – | – | – | –
CCCC(=O)N[C@H]1CCc2cc(OC)c(OC)c(OC)c2-c2ccc(SC)c(=O)cc21 | > 100 | > 100 | 1.42 | > 100 | < 0.01 | – | < 0.01 | > 100 | > 100 | – | – | – | – | – | –
CC1CC2(S(=O)(=O)c3ccccc3)ON1CC2S(=O)(=O)c1ccccc1 (stereo unspecified) | > 100 | > 100 | > 100 | – | > 100 | > 100 | – | > 100 | – | – | – | – | – | – | –
CSc1ncnc2c1ncn2CC(=O)C1CCC2C3CCC4=CC(=O)CCC4(C)C3CCC12C (stereo unspecified) | – | – | – | – | – | – | 12.4 | – | – | – | – | – | – | – | –
COC(=O)C(=O)C(CC(=O)Nc1ccc(C)cc1)C(=O)OC (stereo unspecified) | > 100 | > 100 | > 100 | > 100 | > 100 | > 100 | – | – | > 100 | – | – | – | – | – | –
CN(C)C(=S)/N=c1\ssc(=S)n1C | > 100 | > 100 | > 100 | > 100 | > 100 | > 100 | – | > 100 | > 100 | – | – | – | – | – | –

SMILES | TGI (LXFL 529 NSCLC) [µM] | TGI (DLD-1 colon) [µM] | TGI (RXF-631 renal) [µM] | TGI (SNB-78 CNS) [µM] | TGI (DMS 114 small cell lung) [µM] | TGI (XF 498 CNS) [µM] | TGI (MDA-N) [µM] | TGI (DMS 273 small cell lung) [µM] | TGI (HOP-18 NSCLC) [µM] | GI50 (LXFL 529 NSCLC) [µM] | GI50 (DLD-1 colon) [µM] | GI50 (RXF-631 renal) [µM] | GI50 (SNB-78 CNS) [µM] | GI50 (HOP-18 NSCLC) [µM] | GI50 (DMS 114 small cell lung) [µM]
CC1=Nc2ccccc2SC(c2c(Cl)cccc2Cl)C1 (stereo unspecified) | 1.69 | 1.42 | – | 23.8 | 3.19 | 3.21 | – | 2.19 | 11.1 | – | – | – | – | – | –
O=[N+]([O-])c1cc([As](Br)c2ccc(O)c([N+](=O)[O-])c2)ccc1O | – | – | – | – | – | – | 3.4 | – | – | – | – | – | – | – | –
C[N+](C)(C)CC1CCCCC1=O (stereo unspecified) | – | 39.2 | – | – | > 100 | – | – | > 100 | 30.4 | – | – | – | – | – | –
CN(C)N1C(=O)SCC(c2ccccc2)(c2ccccc2)C1=O | – | – | – | – | – | – | > 100 | – | – | – | – | – | – | – | –
O=C1/C(=C\c2ccco2)Oc2ccccc21 | – | – | – | – | – | – | > 100 | – | – | – | – | – | – | – | –
N=c1c2ccccc2sc2nc3ccccc3n12 | > 100 | > 100 | – | > 100 | > 100 | > 100 | – | > 100 | > 100 | – | – | – | – | – | –
Nc1nc(N)c2cc(Sc3ccc4ccccc4c3)ccc2n1 | – | – | – | – | – | – | 4.66 | – | – | – | – | – | – | – | –
COc1ccc(O)c(C(=O)CCC(=O)O)c1 | > 100 | > 100 | > 100 | > 100 | > 100 | > 100 | – | > 100 | – | – | – | – | – | – | –
CC(=O)c1ccc(NC(=O)C(=O)C(C(=O)/C=C/c2ccccc2)C2OC(=O)c3ccccc32)cc1 (stereo unspecified) | > 100 | > 100 | > 100 | > 100 | – | > 100 | – | > 100 | > 100 | – | – | – | – | – | –
O=C1c2ccccc2C(=O)C12CCc1ccccc12 | > 100 | > 100 | > 100 | > 100 | > 100 | > 100 | – | > 100 | > 100 | – | – | – | – | – | –
COC(=O)c1cc(=O)nc2cc3cccccc3n12 | > 100 | > 100 | – | – | – | > 100 | – | – | > 100 | – | – | – | – | – | –
CCC1=CCN(c2cc(C)ccn2)OC1c1ccccc1 (stereo unspecified) | > 100 | > 100 | 73.1 | > 100 | > 100 | 71.2 | – | > 100 | > 100 | – | – | – | – | – | –
CC(=O)OC(C(=O)[O][Sn]([CH3])([CH3])[CH3])c1ccccc1 (stereo unspecified) | > 100 | > 100 | > 100 | > 100 | > 100 | – | – | – | > 100 | 99.5 | > 100 | > 100 | > 100 | > 100 | > 100
CN/N=C(/c1nc2ccc([N+](=O)[O-])cc2[nH]c1=O)C(O)c1ccc(C(O)/C(=N\NC)c2nc3ccc([N+](=O)[O-])cc3[nH]c2=O)cc1 (stereo unspecified) | > 100 | > 100 | > 100 | > 100 | > 100 | – | – | > 100 | – | – | – | – | – | – | –
CCCCCCC(O)CC[C@H]1CCC[C@@H](C)N1 (stereo partly specified) | > 100 | > 100 | – | > 100 | > 31.6 | – | – | > 100 | > 100 | – | – | – | – | – | –
CCOc1ccc(N=C2NC(=O)C(CC(=O)Nc3ccccc3[N+](=O)[O-])S2)cc1 (stereo unspecified) | > 100 | > 100 | – | > 100 | > 100 | > 100 | – | > 100 | – | – | – | – | – | – | –
O=c1c2c(-c3ccccc3)c3ccccc3nc2cnn1-c1ccccc1 | > 100 | – | – | > 100 | > 100 | – | – | > 100 | > 100 | – | – | – | – | – | –
COc1ccc(/C=C2\CCC(CCN(C)C)(C3=CCCC3)C2=O)cc1 (stereo unspecified) | 30.4 | 79.2 | – | 56.2 | 31.2 | – | – | 31.1 | 66.5 | – | – | – | – | – | –
